Measurements from patent US20140088306A1, “RADIOACTIVE FLUORINE-LABELED QUINOXALINE COMPOUND” (Nihon Medi-Physics Co., Ltd., priority 2012, published 2014).
Where two headings read alike, the source gives them in different places.

Tests used:
[1] = tested on: amyloid plaques; assay: Autoradiography using postmortem brain section of patient with Alzheimer's disease (Example 7); type: binding, human (Alzheimer's disease patient); details: brain section (temporal lobe) of Alzheimer's disease patient; 0.37 MBq/100 μL, 1 hour
Experimental: A postmortem autopsy brain section (temporal lobe) of a patient with Alzheimer's disease was incubated together with each of [^18F]E3, [^18F]D3, [^18F]E1, and [^18F]E2 (0.37 MBq/100 μL each) at room temperature for 1 hour. The resultant was washed with a 50 volume % ethanol aqueous solution (2 minutes×2) and water (2 minutes×2), and after drying, the section was contacted with BAS imaging plate (from Fujifilm Corporation) for 1.5 hours. The image of autoradiography was obtained using BAS5000 scanner system (from Fujifilm Corporation).
A section adjacent to the brain section used was immunostained in the following manner.
First, a paraffin-embedded brain section of the Alzheimer's disease patient (temporal lobe, 6 μm in thickness) was incubated with xylene (15 minutes×2), ethanol (1 minute×2), a 90 volume % ethanol aqueous solution (1 minute×2), and a 70 volume % ethanol aqueous solution (1 minute×1) in that order for complete deparaffinization, and then washed in water (2.5 minutes×2). Thereafter, the section was subjected to autoclave treatment for 15 minutes in 0.01 mol/L citrate buffer solution (pH 6.0). The resultant was incubated in PBS-Tween20 (5 minutes×2), and a mouse anti-Aβ1-42 primary monoclonal antibody (from Wako Pure Chemical Industries Ltd.) was then added thereto, which was then incubated at room temperature overnight. The resultant was incubated in PBS-Tween20 (2 minutes×3), and a biotin-goat anti-mouse IgG (from Funakoshi Co., Ltd.) was then added thereto, which was then incubated at room temperature for 1 hour. The resultant was incubated in PBS-Tween20 (5 minutes×3), and a streptavidin-peroxidase complex (from Funakoshi Co., Ltd.) was added thereto, which was then incubated at room temperature for 30 minutes. In addition, the resultant was incubated in PBS-Tween20 (2 minutes×3); 3,3′-diaminobenzidine was added thereto, which was then incubated at room temperature for 30 minutes; and after washing with water, the section was observed under a microscope to provide an immunostained image (FIG. 10).

[2] = In vivo radioactivity distribution experiment (Example 8); details: ddY mice, tail vein, SD in parenthesis
Experimental: Through the tail vein of ddY mice (male, 5 week-old) was injected each of a 10 volume % ethanol-containing saline solution of [^18F]E3 (45.4 kBq, 100 μL), a 10 volume % ethanol-containing saline solution of [^18F]D3 (38.2 kBq, 100 μL), a 10 volume % ethanol-containing saline solution of [^18F]E1 (45.1 kBq, 100 μL), and a 10 volume % ethanol-containing saline solution of [^18F]E2 (40.6 kBq, 100 μL). Five mice were used for each group and sacrificed 2, 10, 30, and 60 minutes after administration to remove major organs. The blood and organs were weighed and further measured for radioactivity using a γ counter. The amount of radioactivity per unit mass was measured in each organ to evaluate radioactivity distribution.

[3] = biological target: T1, Aβ1-42 aggregates (Homo sapiens, UniProt P05067); assay: [^125I]IMPY binding inhibition experiment (Example 5); details: for binding property to Aβ1-42 aggregates: [^125I]IMPY binding inhibition, result in words
T1 construct: Aβ1-42 aggregates (Peptide Institute, Inc, Osaka) were dissolved in 0.1 mol/L phosphate-buffered saline; purchased Peptide Institute, Inc., Osaka
T1 sequence (P05067 672-713 limits assumed): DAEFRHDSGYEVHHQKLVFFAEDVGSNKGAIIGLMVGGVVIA
Experimental: Aβ1-42 aggregates (Peptide Institute, Inc, Osaka) were dissolved in 0.1 mol/L phosphate-buffered saline (hereinafter referred to as PBS) to 0.25 mg/mL and incubated at 37° C. for 42 hours to prepare an Aβ1-42 aggregate PBS solution. This was further diluted 1:100 with PBS to 2.5 μg/mL and used for an assay.
The mixture was filtered through Whatman (R) GF/B filter, and a γ counter was used to measure the radioactivity of the filter. The measured radioactivity values were used to prepare an inhibition curve to calculate IC50. In addition, the following mathematical expression (1):
was used to calculate an inhibition constant (Ki).

[4] = inhibition of [^125I]IMPY binding to Aβ1-42 aggregates

4-(7-(2-[^18F]Fluoroethoxy)quinoxalin-2-yl)-N,N-dimethylaniline [[^18F]E3]
visualization of gray matter / amyloid plaques by autoradiography [1]: amyloid plaques were visualized
Radioactivity Amount, Blood ([2]; 2 min. after): 2.26 (0.21) % injected dose/g
Radioactivity Amount, Blood ([2]; 10 min. after): 1.91 (0.68) % injected dose/g
Radioactivity Amount, Blood ([2]; 30 min. after): 2.42 (0.17) % injected dose/g
Radioactivity Amount, Blood ([2]; 60 min. after): 2.38 (0.25) % injected dose/g
Radioactivity Amount, Bone ([2]; 2 min. after): 2.45 (0.43) % injected dose/g
Radioactivity Amount, Bone ([2]; 10 min. after): 2.20 (0.09) % injected dose/g
Radioactivity Amount, Bone ([2]; 30 min. after): 2.10 (0.39) % injected dose/g
Radioactivity Amount, Bone ([2]; 60 min. after): 2.02 (0.36) % injected dose/g
Radioactivity Amount, Brain ([2]; 2 min. after): 5.78 (0.60) % injected dose/g
Radioactivity Amount, Brain ([2]; 10 min. after): 3.82 (0.33) % injected dose/g
Radioactivity Amount, Brain ([2]; 30 min. after): 1.85 (0.09) % injected dose/g
Radioactivity Amount, Brain ([2]; 60 min. after): 1.48 (0.07) % injected dose/g
Radioactivity Amount, Heart ([2]; 2 min. after): 6.12 (0.79) % injected dose/g
Radioactivity Amount, Heart ([2]; 10 min. after): 3.48 (0.56) % injected dose/g
Radioactivity Amount, Heart ([2]; 30 min. after): 2.43 (0.12) % injected dose/g
Radioactivity Amount, Heart ([2]; 60 min. after): 2.22 (0.08) % injected dose/g
Radioactivity Amount, Intestine ([2]; 2 min. after): 3.24 (0.43) % injected dose/g
Radioactivity Amount, Intestine ([2]; 10 min. after): 7.95 (1.28) % injected dose/g
Radioactivity Amount, Intestine ([2]; 30 min. after): 16.2 (1.71) % injected dose/g
Radioactivity Amount, Intestine ([2]; 60 min. after): 17.9 (3.64) % injected dose/g
Radioactivity Amount, Kidney ([2]; 2 min. after): 8.65 (0.88) % injected dose/g
Radioactivity Amount, Kidney ([2]; 10 min. after): 5.19 (0.88) % injected dose/g
Radioactivity Amount, Kidney ([2]; 30 min. after): 3.30 (0.27) % injected dose/g
Radioactivity Amount, Kidney ([2]; 60 min. after): 3.51 (1.21) % injected dose/g
Radioactivity Amount, Liver ([2]; 2 min. after): 11.9 (1.35) % injected dose/g
Radioactivity Amount, Liver ([2]; 10 min. after): 11.7 (0.80) % injected dose/g
Radioactivity Amount, Liver ([2]; 30 min. after): 7.11 (1.56) % injected dose/g
Radioactivity Amount, Liver ([2]; 60 min. after): 5.30 (0.82) % injected dose/g
Radioactivity Amount, Lung ([2]; 2 min. after): 5.74 (0.48) % injected dose/g
Radioactivity Amount, Lung ([2]; 10 min. after): 4.02 (0.32) % injected dose/g
Radioactivity Amount, Lung ([2]; 30 min. after): 2.80 (0.15) % injected dose/g
Radioactivity Amount, Lung ([2]; 60 min. after): 2.20 (0.14) % injected dose/g
Radioactivity Amount, Pancreas ([2]; 2 min. after): 6.82 (0.80) % injected dose/g
Radioactivity Amount, Pancreas ([2]; 10 min. after): 3.51 (0.37) % injected dose/g
Radioactivity Amount, Pancreas ([2]; 30 min. after): 2.31 (0.19) % injected dose/g
Radioactivity Amount, Pancreas ([2]; 60 min. after): 1.60 (0.18) % injected dose/g
Radioactivity Amount, Spleen ([2]; 2 min. after): 3.67 (0.40) % injected dose/g
Radioactivity Amount, Spleen ([2]; 10 min. after): 2.89 (0.37) % injected dose/g
Radioactivity Amount, Spleen ([2]; 30 min. after): 2.31 (0.21) % injected dose/g
Radioactivity Amount, Spleen ([2]; 60 min. after): 1.74 (0.05) % injected dose/g
Radioactivity Amount, Stomach* ([2]; 2 min. after): 1.07 (0.20) % injected dose per organ
Radioactivity Amount, Stomach* ([2]; 10 min. after): 2.54 (0.88) % injected dose per organ
Radioactivity Amount, Stomach* ([2]; 30 min. after): 2.02 (0.63) % injected dose per organ
Radioactivity Amount, Stomach* ([2]; 60 min. after): 1.42 (0.22) % injected dose per organ

CN(C)c1ccc(-c2cnc3cc(OCCF)ccc3n2)cc1 [Compound D3, 4-(6-(2-Fluoroethoxy)quinoxalin-2-yl)-N,N-dimethylaniline]
Ki [3]: 0.947 nM
binding property to Aβ1-42 aggregates [3]: sufficiently high binding property

Nc1ccc(-c2cnc3ccc(OCCF)cc3n2)cc1 [Compound E1, 4-(7-(2-Fluoroethoxy)quinoxalin-2-yl)aniline]
binding property to Aβ1-42 aggregates [3]: not each confirmed to have a sufficient binding property
Ki [3, 4]: 1180 nM

CNc1ccc(-c2cnc3ccc(OCCF)cc3n2)cc1 [Compound E2, 4-(7-(2-Fluoroethoxy)quinoxalin-2-yl)-N-methylaniline]
binding property to Aβ1-42 aggregates [3]: not each confirmed to have a sufficient binding property
Ki [3, 4]: 758 nM

CN(C)c1ccc(-c2cnc3ccc(OCCF)cc3n2)cc1 [Compound E3, 4-(7-(2-Fluoroethoxy)quinoxalin-2-yl)-N,N-dimethylaniline]
binding property to Aβ1-42 aggregates [3]: sufficiently high binding property
Ki [3, 4]: 111 nM

Nc1ccc(-c2cnc3ccc(OCC[18F])cc3n2)cc1 [[^18F]E1, 4-(7-(2-[^18F]Fluoroethoxy)quinoxalin-2-yl)aniline]
visualization of gray matter / amyloid plaques by autoradiography [1]: did not visualize the gray matter but rather strongly visualized the white matter
Radioactivity Amount, Liver ([2]; 2 min. after): 9.18 (1.45) % injected dose/g
Radioactivity Amount, Liver ([2]; 10 min. after): 12.1 (1.82) % injected dose/g
Radioactivity Amount, Liver ([2]; 30 min. after): 8.76 (1.01) % injected dose/g
Radioactivity Amount, Liver ([2]; 60 min. after): 6.52 (0.93) % injected dose/g
